The data set in a line: GHS categories as the set defines them, by LD50: 1 up to 5, 2 up to 50, 3 up to 300, 4 up to 2000, 5 above 2000 mg/kg. The note with it: rat; in vivo; po. The source says:
[…]The data set underlying the modeling effort for this project was initially compiled by NICEATM and U.S. EPA’s CCTE. Briefly, LD50 data were collected from rat acute oral systemic toxicity tests, including limit tests, ranges/confidence intervals, and discrete LD50 values. The full data set included 21,200 LD50 entries for 15,688 substances. […] Data were reviewed to ensure that LD50 values with obvious errors in the extracted data such as unit conversion errors (e.g., comma and decimal separator misplacements) were either fixed or removed. After this review, 16,209 LD50 values remained. Many of the chemicals represented had multiple LD50 entries, requiring that a single representative value per Chemical Abstracts Service Registry Number (CASRN) identifier be defined to facilitate modeling efforts. Based on ATWG feedback and to define the representative LD50 as a protective value while accounting for the distribution across multiple LD50s, the median of the lowest quartile was computed using only discrete LD50 values (omitting limit test data and range and confidence interval data). A detailed summary of the data compilation is available online on the NICEATM webpage dedicated to the collaborative modeling project (NTP 2020).
[…][…] For categorical designations, limit test and range/confidence interval LD50 data were integrated wherever possible. As such, the number of chemicals with end point values/calls varies across the modeling end points (Table 3) based on whether chemicals had representative LD50 values and/or other data. If a chemical had both, the representative value was used to determine categorical calls rather than limit test data. Some data were useable only for certain end points and categories depending on the thresholds. For example, ranges that spanned multiple hazard categories were considered only for the binary (very toxic/nontoxic) end points and omitted from rendering a determination for hazard category assignment.
[…]The final data set comprising 11,992 chemicals was split into training and evaluation sets […], respectively. This process was performed semirandomly by ordering chemicals based on the five end points (categorical and continuous LD50 values) and partitioning every fourth record into the evaluation set accordingly. This approach was taken to ensure an equivalent distribution of the LD50 values and the different hazard categories between the training and the evaluation sets without supervised sampling of the chemicals based on structures (Figure 1A). The sources of the chemical structures were also kept equivalent between the two sets, with chemical structures obtained from DSSTox, being the highest quality, representing over 75% of each set (Figure 1B).

The compound `CC[C@H]1C[C@@H]2CC[C@@H](O2)[C@@H](C)C(=O)O[C@H](CC)C[C@H]2CC[C@H](O2)[C@H](C)C(=O)O[C@@H](CC)C[C@@H]2CC[C@@H](O2)[C@@H](C)C(=O)O[C@H](CC)C[C@H]2CC[C@H](O2)[C@H](C)C(=O)O1` gave a GHS category of 5.
`CC1=CCC(C=CC(C)C(C)O)C1(C)C` (stereo not given) gave a GHS category of 4.
With `O=C(Nc1cc(Cl)c(Cl)cc1Cl)c1cc(Cl)cc(-c2ccccc2)c1O` the figure was 5.
With `C[Si](Cl)(Cl)C1CCCCC1` the figure was 5; with `CCCC(=O)N(C)C(=O)Oc1cccc2c1OCO2`, 4; with `CCCCCCC1(C)CCC(=O)O1` (stereo not given), 5.
Next, `CCC=CCC=CCC=CCC=CCC=CCCCCCC(=O)O`: 5.
`CC(C)CCOC(=O)C=Cc1ccccc1` displayed a GHS category of 5.
In the case of `CC(C)C1C(=O)N(c2ccccc2)N(c2ccc(O)cc2)C1=O` (stereo not given), the GHS category is listed as 4.
For the compound `O=C(CC(=O)c1ccccc1)c1ccccc1`, the GHS category stood at 5.
With `CC(C)CCCCCCCOC(=O)CCCCCCCC(=O)OCCCCCCCC(C)C` the figure was 5; with `Cc1ccc(Cl)cc1NC(=O)c1cc2ccccc2cc1O`, 5.
The compound `CC(C)C(N)C(=O)OCc1ccccc1` (stereo not given) registered a GHS category of 5.
The compound `NC(=O)CC1(CC(=O)O)CCCCC1` displayed a GHS category of 5.
As for `COC(F)(F)C(C(F)(F)F)C(F)(F)F`, the GHS category was determined as 3.
Compound `CC(C)OC(=O)C=Cc1ccccc1` yielded a GHS category of 5.
The compound `CC1(C)Oc2cc(C(=O)c3ccccc3)ccc2NC1=O` showed a GHS category of 5.
The compound `CCCc1c(Cc2ccc(-c3ccccc3-c3nn[nH]n3)cc2)c(=O)nc2nc(SC)[nH]n12` had a GHS category of 4.
On to `O=S(=O)(O)c1ccc2c(ccc3nn(-c4ccc(C=Cc5ccc(-n6cncn6)cc5S(=O)(=O)O)c(S(=O)(=O)O)c4)nc32)c1`, for which the GHS category was 5.
In turn, `C=C[C@](C)(O)CC[C@@H]1[C@@]2(C)CCCC(C)(C)[C@@H]2CC[C@@]1(C)O` came in with a GHS category of 5.
`CC(C)c1cc2c(cc1S(=O)(=O)O)[C@@]1(C)CCC[C@@](C)(C(=O)O)[C@@H]1CC2` had a GHS category of 5.
As for `C[C@@H](Oc1cc(Br)cnc1N)c1c(Cl)ccc(F)c1Cl`, the GHS category is recorded as 5.
Turning to `CCOC(=O)c1cc(Br)ccc1OC(N)=O`, the GHS category turned out to be 5.
With `N#CNC1=NCCS1`, the GHS category was 4.
As to `CNC(=O)C(=NNc1ccc(Cl)cc1)C(C)=O`, the GHS category came out at 5.
`CCCCCCCCCCCCN1CCCCCC1=O` came in with a GHS category of 5.
In turn, `COC(=O)c1ccccc1S(=O)(=O)NC(=O)Nc1nc(C)nc(OC)n1` returned a GHS category of 5.
`COC(=O)CC(C)C(=O)c1ccc(NC(=O)c2ccc(OC)cc2)c([N+](=O)[O-])c1` (stereo not given) yielded a GHS category of 5.
Regarding `CC1OC(Cn2cncn2)(c2cc3cc(Cl)cc(Cl)c3o2)OC1C` (stereo not given), the GHS category was 4.
With `CCCC(C)C=O` (stereo not given) the figure was 5; with `CC1CCN(c2nc3cc(Cl)ccc3o2)CCN1` (stereo not given), 4.
`CCN(C(=O)Oc1cccc(NC(=O)OC(C)C)c1)c1ccccc1` came in with a GHS category of 5.
As for `CCN(C(=O)Cl)C1CCCCC1`, the GHS category was found to be 4.
Next, `O=C1Cc2cccc(F)c2N1`: 4; `C[C@H]1c2cccc(O)c2C(=O)C2=C(O)[C@]3(O)C(=O)C(C(N)=O)=C(O)[C@@H](N(C)C)[C@@H]3[C@@H](O)[C@@H]21`: 5; `CC(C)(C)c1cc2c(c(C(C)(C)C)c1)OP(=O)(O)Oc1c(cc(C(C)(C)C)cc1C(C)(C)C)C2`: 5.
Compound `CO[C@@]1(NC(=O)CSC(F)F)C(=O)N2C(C(=O)O)=C(CSc3nnnn3CCO)CO[C@@H]21` had a GHS category of 5.
Compound `CCC1COC(Cn2cncn2)(c2cc3cc(Cl)cc(Cl)c3o2)O1` (stereo not given) gave a GHS category of 4.
On to `C[N+](C)(C)CC(O)CC(=O)[O-]` (stereo not given), for which the GHS category is on record as 5.
Compound `CCOc1c(N)c2c(c(OCC)c1OCC)C(C1c3c(cc4c(c3OC)OCO4)CCN1C)OC2=O` (stereo not given) yielded a GHS category of 5.
`CCCCCCCCCCCCCCCC(=O)OC1=C(C(=O)Nc2ccccn2)N(C)S(=O)(=O)c2ccsc21` showed a GHS category of 2.
Consider `Cc1nc(NS(=O)(=O)c2ccc(N)cc2)oc1C`, for which the GHS category is on record as 5.
Consider `CC1(C)S[C@@H]2[C@H](/N=C/N3CCCCCC3)C(=O)N2[C@H]1C(=O)O`, for which the GHS category worked out at 5.
For `C=CCCCCCCCC(=O)OC`, the GHS category is 5.
`CCC(C)C(=O)OCCc1ccccc1` (stereo not given) showed a GHS category of 5.
Next, `O=C(NC(=O)c1ccccc1Cl)Nc1ccc(OC(F)(F)F)cc1`: 5; `c1ccc(CN(Cc2ccccc2)Sc2nc3ccccc3s2)cc1`: 5.
With `CCC(=O)OCC(=O)OC(C)C1CCCC(C)(C)C1` (stereo not given) the figure was 5.
Take `O=C(O)CSCC(=O)NC1CCSC1=O` (stereo not given): the GHS category is 5.
On to `CN(C)CC(=O)O`, for which the GHS category was 4.
`CCCCCCCCOc1ccc(-c2ccc(C#N)cc2)cc1`: the GHS category is reported as 5.
`O=COC1CCC2CCCCC2C1` (stereo not given) registered a GHS category of 5.
For the compound `CNC(=O)C(=NNc1ccc([N+](=O)[O-])cc1OC)C(C)=O`, the GHS category is 5.
`NC(=O)Oc1ccccc1C(=O)Oc1ccccc1`: the GHS category is given as 5.
Turning to `COc1ccccc1NC(=O)C(N=Nc1ccc(Cl)cc1[N+](=O)[O-])C(C)=O` (stereo not given), the GHS category stood at 5.
For the compound `C=CC(=O)Oc1c(Br)cc(Cl)c2cccnc12`, the GHS category was found to be 5.
Consider `CCN(CC)CCOC(=O)c1ccc(-n2c(C)nc3ccccc3c2=O)cc1`, for which the GHS category came to 5.
On to `CCCC1CCOC(C)S1` (stereo not given), for which the GHS category is given as 5.
The compound `CCCCOC(=O)c1ccc(-n2nc(OCCCN3CCCCC3)c3ccccc32)cc1` registered a GHS category of 4.
As to `CC(C)(c1ccc(OCCO)cc1)c1ccc(OCCO)cc1`, the GHS category stood at 5.
`CCCCCCCCCCCCCCCCCC(=O)OCCOC(=O)CCCCCCCCCCCCCCCCC` came in with a GHS category of 5.
For `Brc1cnc2[nH]ccc2c1`, the GHS category stood at 5.
For `Nc1nc(=O)c(Br)c(-c2ccccc2)[nH]1`, the GHS category is given as 5.
Next, `COc1cc2nc(N3CCC(N(C)C(=O)c4ccco4)CC3)nc(N)c2cc1OC`: 4; `COC1=C(C(=O)O)N2C(=O)[C@@H](NC(=O)[C@H](N)C3=CCC=CC3)[C@H]2SC1`: 5.
Turning to `O=C(O)C1CNC1`, the GHS category came to 5.
Compound `Cc1ccc(NC(=O)c2cc(C)[nH]n2)cc1` came in with a GHS category of 5.
As for `COc1ccc2c(c1)CCN(c1ccccc1)C2c1ccccc1OC` (stereo not given), the GHS category came to 4.
`CC(C)C1=CC2=CC[C@H]3[C@](C)(CO)CCC[C@]3(C)[C@H]2CC1` gave a GHS category of 5.
`CC(CCO)CCCC(C)(C)O` (stereo not given) had a GHS category of 5.
Compound `CCCOc1nn(C(=O)NS(=O)(=O)c2ccccc2C(=O)OC)c(=O)n1C` gave a GHS category of 5.
The compound `CCCCCCCCCCCCCCCC(=O)O` yielded a GHS category of 5.
Compound `NC(=O)CCNCCO` had a GHS category of 5.
With `O=C[C@H](O)[C@@H](O)[C@H](O)[C@H](O)CO[C@H]1O[C@H](CO[C@H]2O[C@H](CO)[C@@H](O)[C@H](O)[C@H]2O)[C@@H](O)[C@H](O)[C@H]1O` the figure was 5.
Compound `S=C(SSC(=S)N(Cc1ccccc1)Cc1ccccc1)N(Cc1ccccc1)Cc1ccccc1` had a GHS category of 5.
With `CCC(=O)CCC1C(C)=CCCC1(C)C` (stereo not given) the figure was 5.
With `CCCC(C)O` (stereo not given) the figure was 5; with `C=CC(=O)OCCCOCC(C)(C)COCCCOC(=O)C=C`, 5; with `CC(=O)OC1C(N2CCCC2)CC2C3CCC4CC(O)C(N5CCOCC5)CC4(C)C3CCC21C` (stereo not given), 5.
As for `CCCOc1ccc(Cl)c2c(=O)c3ccccc3sc12`, the GHS category was 5.
With `Cc1cc(C(C)(C)C)c(O)c(C)c1CC#N` the figure was 5; with `CC(O)CO[C@@H]1[C@@H](O)[C@H]2O[C@H]3[C@H](OCC(C)O)[C@@H](O)[C@@H](O[C@H]4[C@H](O)[C@@H](OCC(C)O)[C@@H](O[C@H]5[C@H](O)[C@@H](O)[C@@H](O[C@H]6[C@H](O)[C@@H](OCC(C)O)[C@@H](O[C@H]7[C@H](O)[C@@H](O)[C@@H](O[C@@H]1[C@@H](CO)O2)O[C@@H]7CO)O[C@@H]6CO)O[C@@H]5CO)O[C@@H]4CO)O[C@@H]3CO` (stereo not given in full), 5; with `NC(=O)c1cn(CCO)nc1[N+](=O)[O-]`, 5.
With `CCc1ccc(CC)cc1`, the GHS category turned out to be 5.
In the case of `Cc1c([N+](=O)[O-])c(C)c([N+](=O)[O-])c(C(C)(C)C)c1[N+](=O)[O-]`, the GHS category was determined as 5.

The values above are taken from the CATMoS acute toxicity set (Mansouri et al. 2021).
